Where two headings read alike, the source gives them in different places.
What was measured:
[1] = neat substance; BuAc (reference) = 1.00; cited from earlier work
[2] = flash point; cited from earlier work
[3] = n-octanol/water; cited from earlier work
[4] = test system: Staphylococcus aureus (ATCC 6538), Pseudomonas aeruginosa (ATCC 9027), Salmonella Choleraesuis (ATCC 13312); test: Coverslip assay: composition applied to dried bacteria on glass coverslips, evaporated to dryness, nutrient agar contact; assay type: cell-based
Method: These bacteria cultures can be diluted to obtain concentrations of about 10^7 through about 10^3 CFU/ml and 10 μl of each dilution can be spread onto a glass coverslip with a sterile loop and allowed to dry. Afterwards, the coverslips containing 10^5 to 10^2 CFU can be placed inside of petri dish. Different concentrations of the amount of substance can be applied to the cover slips with a nebulizer as described by Germicidal Spray Products as Disinfectants, Method 961.02, AOAC International (2004). As a non-limiting example, isopropyl alcohol (IPA) and diacetone alcohol (DAA) can be assessed as above described by obtaining aqueous mixtures of IPA at concentrations of 55% w/w, 20% w/w, and 5% w/w. […] A nutrient agar lightly pressed against the coverslips allows contact of microorganisms on the coverslips with the nutrient agar. The nutrient agar can be incubated for 48 hours at 37° C. in contact with the coverslips and then observed for microbial reproduction in the region where the coverslips contact the nutrient agar. Untreated coverslips can be used as a positive control. Particular examples of utilizing the method are set forth below.

[5] = cited from earlier work
[6] = Evaporation of fluid volume over time (FIG. 2); assay type: physicochemical
Source text: (§1) Line C represents the change in fluid volume of a 20% (v/v) solution of diacetone alcohol in water caused by evaporation (a particular embodiment of the inventive differential evaporation antimicrobial composition), while line D represents the change in fluid phase concentration of the same 20% (v/v) diacetone alcohol in water occurring during the same fluid volume change. In this case, complete evaporation can occur in approximately 75 time units. Comparatively, the 20% (v/v) diacetone alcohol in water can be engaged with a population of microorganisms for a greater duration of time than the conventional antimicrobial composition without reapplication of an additional amount because evaporation occurs at a slower rate as shown by Table 3.
By comparison, Line C represents the change in fluid volume of a 20% (v/v) solution of diacetone alcohol in water, while line D represents the change in concentration of diacetone alcohol in water. As to this non-limiting example, if 10% diacetone alcohol (v/v) is the minimum concentration to provide an antimicrobial composition, then the entire 75 time units provide an antimicrobial composition because the concentration of diacetone alcohol increases over the 75 time units in accordance with embodiments of differential evaporation potentiated antimicrobial compositions.

[7] = test system: Staphylococcus aureus (ATCC 6538); test: Potentiation Assay (non-evaporative vs evaporative procedure); assay type: cell-based; details: for Evaporated Log 10 Reduction: evaporated in centrifuge 60 minutes; for Non-evaporated Log 10 Reduction: set 60 minutes; for evaporative potentiation of antimicrobial efficacy: evaporative vs non-evaporative procedure, concentrations tested in water
Method: Now referring primarily to Table 5 and FIG. […] The non-evaporative and evaporative procedures included 50 μL of an overnight Staphylococcus aureus (ATCC 6538, ˜10^9 CFU/mL) culture added to each 2 mL sterile plastic vial with a conical bottom and dried without capping in a centrifuge for 30 minutes. One hundred microliters of the solution being tested was added to each vial (as triplicate vials) either let set for 60 minutes (non-evaporative) or evaporated in a centrifuge for 60 minutes (evaporative), with time to evaporate being determined by each DAA mixtures own evaporative characteristic. To the non-evaporated vials, 400 μL Mueller Hinton Broth (MHB) was added to the vial and 100 μL was plated onto Nutrient agar (NA). To the evaporated vials, 500 μL of MHB was added and 100 μL was plated onto NA. Plates were incubated overnight at ˜37° C. and counted (the “Potentiation Assay”).

[8] = Relative evaporation rates; assay type: physicochemical; details: BuAc (reference) = 1.00
Source text: as §1

[9] = 6% v/v active component, 94% water
[10] = 70% v/v active component, 30% water
[11] = 10% v/v active component, 90% water
[12] = 20% v/v active component, 80% water
[13] = azeotrope in water, Table 2, listed as Diacetone Alcohol
[14] = 3% v/v active component, 97% water
[15] = 15% v/v active component, 85% water

CC(C)=O [Acetone, reference compound]
Relative Evaporation Rates [1]: 11.60 | FP [2]: −18 °C | Log P [3]: −0.23

CC(C)O [Isopropanol, 2-propanol, reference compound]
Evaporated from coverslip [4, 9]: ---o--- | Evaporated from coverslip ([4]; 25% v/v active component, 75% water): ---o--- | Evaporated from coverslip [4, 10]: X (denotes a plate where the number of colonies represented less than 50% of the number of colonies counted in the corresponding positive control plate, representing reduction of the number of microorganisms (<2 Log10 reduction).) | reduction of the population of viable microorganisms ([4]; concentrations of 6% and 25% in water): did not reduce the population of viable microorganisms | Azeotrope with Water % v/v ([5]; Table 1): 83% v/v | Azeotrope with Water % w/w ([5]; Table 1): 87% w/w | FP [2]: 21 °C | complete evaporation ([6]; 70% (v/v) in water): about 15 time units | Evaporated Log 10 Reduction [7, 11]: ---0--- (denotes a plate where the numbers of colonies represented more than 50% of the number of colonies counted in the corresponding positive control plate, representing no significant reduction in the population of viable microorganisms (0 to 1 Log10 reduction).) | Non-evaporated Log 10 Reduction [7, 11]: ---0--- (denotes a plate where the numbers of colonies represented more than 50% of the number of colonies counted in the corresponding positive control plate, representing no significant reduction in the population of viable microorganisms (0 to 1 Log10 reduction).) | Evaporated Log 10 Reduction [7, 12]: ---0--- (denotes a plate where the numbers of colonies represented more than 50% of the number of colonies counted in the corresponding positive control plate, representing no significant reduction in the population of viable microorganisms (0 to 1 Log10 reduction).) | Non-evaporated Log 10 Reduction [7, 12]: XXX (denotes a plate in which zero colonies were present, representing complete reduction of the number of microorganisms (>5 Log10 reduction).) | Evaporated Log 10 Reduction [7, 10]: XXX (denotes a plate in which zero colonies were present, representing complete reduction of the number of microorganisms (>5 Log10 reduction).) | Non-evaporated Log 10 Reduction [7, 10]: XXX (denotes a plate in which zero colonies were present, representing complete reduction of the number of microorganisms (>5 Log10 reduction).) | evaporative potentiation of antimicrobial efficacy [7]: cannot be potentiated

CC(=O)CC(C)(C)O [DAA, 4-hydroxy-4-methyl-2-pentanone]
Relative Evaporation Rates (estimated) ([8]; 20% (v/v)): 0.31 | Relative Evaporation Rates (estimated) ([8]; 40% (v/v)): 0.27 | Evaporated from coverslip [4, 9]: X (denotes a plate where the number of colonies represented less than 50% of the number of colonies counted in the corresponding positive control plate, representing reduction of the number of microorganisms (<2 Log10 reduction).) | Evaporated from coverslip [4, 11]: XX (denotes a plate where the number of colonies represented less than 10% of the number of colonies counted in the corresponding positive control plate, representing a significant reduction of the number of microorganisms (>3 Log10 reduction).) | Evaporated from coverslip ([4]; 60% v/v active component, 40% water): XXX (denotes a plate in which zero colonies were present, representing complete reduction of the number of microorganisms (>5 Log10 reduction).) | reduction of populations of microorganisms, comparison ([4]; concentrations at which water evaporated at a greater rate than DAA from the mixture): greater reduction of populations of microorganisms than 70% IPA (v/v) | azeotrope % mol/mol ([5]; azeotrope in water, Table 2): 2.2% mol/mol | azeotrope % vol/vol [5, 13]: 13.43% vol/vol | azeotrope % w/w [5, 13]: 12.70% w/w | azeotrope % w/w ([5]; azeotrope in water, Table 2, listed as diacetone alcohol): about 12.70 % w/w | azeotrope point ([5]; diacetone alcohol and water): about 12.7 grams per 100 grams of the com | Relative Evaporation Rates [1]: 0.14 | complete evaporation ([6]; 20% (v/v) in water): approximately 75 time units | Evaporated Log 10 Reduction [7, 14]: X (denotes a plate where the number of colonies represented less than 50% of the number of colonies counted in the corresponding positive control plate, representing reduction of the number of microorganisms (<2 Log10 reduction).) | Non-evaporated Log 10 Reduction [7, 14]: ---0--- (denotes a plate where the numbers of colonies represented more than 50% of the number of colonies counted in the corresponding positive control plate, representing no significant reduction in the population of viable microorganisms (0 to 1 Log10 reduction).) | Evaporated Log 10 Reduction [7, 9]: X (denotes a plate where the number of colonies represented less than 50% of the number of colonies counted in the corresponding positive control plate, representing reduction of the number of microorganisms (<2 Log10 reduction).) | Non-evaporated Log 10 Reduction [7, 9]: ---0--- (denotes a plate where the numbers of colonies represented more than 50% of the number of colonies counted in the corresponding positive control plate, representing no significant reduction in the population of viable microorganisms (0 to 1 Log10 reduction).) | Evaporated Log 10 Reduction [7, 11]: XX (denotes a plate where the number of colonies represented less than 10% of the number of colonies counted in the corresponding positive control plate, representing a significant reduction of the number of microorganisms (>3 Log10 reduction).) | Non-evaporated Log 10 Reduction [7, 11]: ---0--- (denotes a plate where the numbers of colonies represented more than 50% of the number of colonies counted in the corresponding positive control plate, representing no significant reduction in the population of viable microorganisms (0 to 1 Log10 reduction).) | Evaporated Log 10 Reduction [7, 15]: XXX (denotes a plate in which zero colonies were present, representing complete reduction of the number of microorganisms (>5 Log10 reduction).) | Non-evaporated Log 10 Reduction [7, 15]: XXx (denotes a plate where the number of colonies represented less than 1% of the number of colonies counted in the corresponding positive control plate, representing nearly complete reduction of the number of microorganisms (>4 Log10 reduction).) | evaporative potentiation of antimicrobial efficacy [7]: can be potentiated by evaporation | Log P [3]: about −0.14

From US9474814B2, “Differential evaporation potentiated disinfectant system” (XY, LLC, priority 2007, dated 2016)
